Laboratory results published in US20040038933A1, “Pharmaceutical compositions, dose and method for treating malaria” (priority 2000, published 2004).

Columns and labels:
P. falcipanini = experiment: Recovery from fever in patients with severe malaria, combined administration of CRDS and artesunate; type: in vivo; details: CRDS 4 mg/kg i.v. infusion every 8 hours for 4 days, artesunate i.v. 120 mg then 60 mg every 12 hours up to 600 mg, 22 patients per group, FIG. 1
Experimental: Sodium curdlan sulfate (hereinafter referred to as “CRDS”; molecular weight 80,000; sulfur content 14.5%) was used as a sulfated polysaccharide and artesunate (dihydroartemisinin hemisuccinate, see formula I, J. Med. Chem., 30, 2147 (1987)) was used as an artemisinin compound.
(§1) CRDS was used as a solution containing 100 mg of CRDS, 50 mg of mannitol, 18 mg of dibasic sodium phosphate and phosphate buffer (pH 6.5) per vial.
(§2) CRDS was intravenously administered (infusion) at 4 mg/kg every 8 hours in a total daily dose of 12 mg/kg for 4 days.
(§3) Physiological saline was used as a placebo and administered according to the same schedule as for CRDS.
Artesunate (60 mg/vial) was intravenously administered to both CRDS and placebo groups at a dose of initially 120 mg, and then 60 mg every 12 hours up to a total dose of 600 mg (according to the current standard therapy in the Bangkok Hospital for Tropical Diseases). If possible, tablets containing 50 mg of artesunate were orally administered.
Fifty patients were randomly divided into a CRDS group and a placebo group. The patients were males and females at the ages of 12-65 in whom P. falcipanini was found. The patients had symptoms of severe malaria (with hypoglycemia corrected) and excluded those having symptoms of cerebral malaria. […]
The time required for each patient to recover from fever after starting the treatment was recorded. […]

[1] = test system: asexual malarial parasites; experiment: Recovery from coma in patients with severe/cerebral malaria, combined administration of CRDS and artesunate; type: in vivo; details: male patients in a coma, Glasgow Coma Score, CRDS 4 mg/kg i.v. infusion every 8 hours for 4 days, artesunate i.v. up to 600 mg, 13 patients per group, FIG. 2
Experimental: CRDS (molecular weight 80,000; sulfur content 14.5%) was used as a sulfated polysaccharide and artesunate was used as an artemisinin compound.
as §1, §2, §3
Artesunate (60 mg/vial) was intravenously administered to both CRDS and placebo groups at a dose of initially 120 mg, and then 60 mg every 12 hours up to a total dose of 600 mg. If possible, tablets containing 50 mg of artesunate were orally administered.
Coma was determined by Glasgow Coma Score.
For each of the CRDS group and the placebo group, 13 patients completed this protocol. The time required for each patient to recover from coma was recorded. Fisher's exact test was used to compare the number of patients who recovered from coma within 120 hours between both groups (CRDS group and placebo group).

C[C@H]1[C@H](OC(=O)CCC(=O)O)O[C@@H]2O[C@@]3(C)CC[C@H]4[C@H](C)CC[C@@H]1[C@@]24OO3 [artesunate, dihydroartemisinin hemisuccinate]
time required for all the patients to recover from fever (P. falcipanini): 9 days
time required for all the patients to recover from coma [1]: 9 days
